One series deals with MCF7 cells. Briefly: Toxicity of PTX-loaded carriers, Alamar Blue assay. It is filed as cell-based. The settings on record: MCF7, 72 h, 10 μM PTX. On the procedure: (§1) Selective delivery of chemotherapeutic drug. To test whether the observed target selectivity would translate into differential cell kill efficiency, the ligand-coated nanogels encapsulating a chemotherapeutic drug molecule, paclitaxel (PTX) were prepared. The PTX-loaded polymeric aggregates (polymer-PTX), NG (NG-PTX) and NG-RGD (NG-RGD-PTX) were added to MCF7 cells and HeLa cells and the extent of cell death was investigated after 72 h. […] This supports the hypothesis that the polymeric micellar aggregates have a leaky nature, which leads to free drug being translocated through the cellular membrane. […] This is consistent with the observed slow internalization of nanogels, which should result in a reduced amount of chemotherapeutic inside the cells.
(§2) Cell culture: The cell viabilities of the nanogels were tested with 293T cells. 293T cells were cultured in T75 cell culture flasks using Dulbecco's Modified Eagle Medium/Nutrient Mixture F-12 (DMEM/F12) with 10% fetal bovine serum (FBS) supplement. […] Cell viability was measured using the Alamar Blue assay with each data point measured in triplicate. Fluorescence measurements were made using the plate reader SpectraMax M5 by setting the excitation wavelength at 560 nm and monitoring emission at 590 nm on a black well plate. […] Cell death was measured by the Alamar Blue assay in triplicate.

Series [1] concerns HeLa cells. The experiment in a line: Toxicity of PTX-loaded carriers, Alamar Blue assay. In kind it is cell-based. The settings on record: 72 h, 10 μM PTX. On the procedure:
as §1, §2

In another series the test system is MCF-7 cells. Briefly: Cell uptake of free Dox and Dox-loaded nanogels by confocal microscopy. It is filed as cell-based. Conditions: 20 μM Dox concentration, 3-4 h. As for the experimental part: For further study, the cell uptake of both free Dox and Dox-loaded nanogels (20 μM Dox concentration) was monitored using confocal microscopy over time. Initial internalization of Dox was observed within 3 h for free Dox and NG3-Dox, but not until 4 h for NG1-Dox (FIG. 9c-g). […] This is presumably the reason that the two nanogels show similar toxicities.
Laser Scanning Confocal Microscopy: The laser confocal experiment was performed with MCF-7 cells. MCF-7 cells were cultured in T75 cell culture flask containing DMEM/F12 with 10% FBS supplement. The cells were seeded at 10,000 cells/100 μL in cover slip-bottomed Petri dishes and allowed to grow for 3 days at 37° C. in a 5% CO2 incubator. The cells in 2 mL of culture medium were treated with 200 μL of nanogels containing two dyes or doxorubicin and incubated at 37° C. for different time intervals before monitoring the cells by confocal microscopy.

The subject of series [2] is HeLa cells. The experiment in a line: Intracellular delivery of DiI and FITC-β-gal by confocal microscopy. It is filed as cell-based. The settings on record: without nanogel. On the procedure: Intracellular delivery of DiI and β-gal was also tested. As the nanogels consist of biodegradable disulfide crosslinkers, the release of the complexed protein and encapsulated lipophilic molecule can be triggered upon exposure to glutathione (present at higher concentrations inside the cells (mM), compared to the extracellular concentration […]). To compare the release profile of these dual delivery systems, NG1-CRRR and NG2-CRRR containing DiI in its interior and complexed with FITC labeled β-gal, were added to HeLa cells with serum and without serum. In the case of cell internalization of both encapsulated DiI and FITC labeled protein, a yellow color would be observed due to the co-localization and overlay of both red and green fluorophores for DiI and FITC, respectively. If there is no internalization of the nanogel, no color could be observed.
Fluorescence distribution of DiI and FITC was observed over time by confocal fluorescence microscopy with simultaneous excitation of both dye molecules at 488 nm and 543 nm for FITC and DiI, respectively. As shown in FIGS. 33a and 33b, green and red emissions were observed when the cells were treated with the nanogel-protein complexes. […] The green fluorescence of the FITC (label for protein) and red fluorescence for DiI (encapsulated small molecule) appear uniformly distributed. […]

Series [3] is described as follows: DLS size of NG-CRRR nanogels, β-gal and complexes; estimated numbers per complex. It is filed as physicochemical.
From the text: Also evaluated were the size change and charge alteration of the nanogel surface due to the complexation event using DLS and zeta potential measurements respectively.

The source of these data is US10358531B2, “Crosslinked polymer nano-assemblies and uses thereof” (University of Massachusetts, priority 2011, dated 2019).

As for `CC(=O)O[C@H]1C(=O)[C@@]2(C)[C@H]([C@H](OC(=O)c3ccccc3)[C@]3(O)C[C@H](OC(=O)[C@H](O)[C@@H](NC(=O)c4ccccc4)c4ccccc4)C(C)=C1C3(C)C)[C@]1(OC(C)=O)CO[C@@H]1C[C@@H]2O` [free PTX, paclitaxel], the “toxicity (cell death)” value with MCF7 cells and in the series with HeLa cells [1] was “highly toxic” throughout.

For the molecule `COc1cccc2c1C(=O)c1c(O)c3c(c(O)c1C2=O)C[C@@](O)(C(=O)CO)C[C@@H]3O[C@H]1C[C@H](N)[C@H](O)[C@H](C)O1` [free Dox, doxorubicin], in the series with MCF-7 cells, the “intracellular localization of Dox” value was “significant accumulation in the nucleus”.

Take “FITC-β-gal: β-gal functionalized with fluorescein”: in the series with HeLa cells [2], the “intracellular delivery of protein alone” value is reported as “no fluorescence”.

For “β-gal: β-galactosidase (pI: 4.8, from E. coli), the model protein”, the hydrodynamic diameter in series [3] is given as around 10 nm. In addition, the “intracellular delivery of protein alone” value in the series with HeLa cells [2] was “not efficient”.
